This note sets out measurements from the Deep4Chem optical property database.

A short description of the data set: solvent given as SMILES.

Consider `COc1ccc(C2=c3sc(-c4ccc(OC)cc4)cc3=[N+]3C2=Nc2c(-c4ccc(OC)cc4)c4sc(-c5ccc(OC)cc5)cc4n2[B-]3(F)F)cc1`, for which the emission maximum (in ClC(Cl)Cl) was 814 nm.

In the case of `Cc1ccc(-c2ccc(/C=C/c3ccccc3)cn2)nc1`, the emission maximum (in CC#N) turned out to be 392 nm.

Take `CCN(CC)c1ccc(-c2ccc(-c3nc(C#N)c4ccccc4n3)s2)cc1`: the emission maximum by setting is: (in CC#N) 539 nm; (in Cc1ccccc1) 471 nm.

`CCCCCCCCCCCCN1C(=O)c2c(c3ccc4cc(-c5cccs5)c(OC)cc4c3c3c2ccc2cc(-c4cccs4)c(OC)cc23)C1=O` had an emission maximum (in ClCCl) of 545 nm.

On to `c1ccc(-n2c(-c3cccc4ccccc34)nc3c4ccccc4c4ccccc4c32)cc1`, for which the emission maximum runs as follows: (in C1CCOC1) 413.91 nm; (in CCCCCC) 384 nm; (in CS(C)=O) 423 nm; (in Cc1ccccc1) 410 nm; (in ClCCl) 415.6 nm.

In the case of `CCCCCCOc1ccc(N(c2ccc(OCCCCCC)cc2)c2ccc(-c3sc(-c4ccc(N(c5ccc(OCCCCCC)cc5)c5ccc(OCCCCCC)cc5)cc4)c4nc(-c5ccccc5)c(-c5ccccc5)nc34)cc2)cc1`, the emission maximum by setting is: (in C1CCOC1) 770 nm; (in CC(C)=O) 793 nm; (in CCOC(C)=O) 768 nm; (in CCOCC) 751 nm; (in CN(C)C=O) 806 nm; (in Cc1ccccc1) 748 nm. Besides, the emission maximum runs as follows: (in ClC(Cl)Cl) 777 nm; (in ClCCl) 793 nm.

`C#CCOc1ccc(/C=C/C2=[N+]3C(=C(c4ccccc4)c4c(C)cc(C)n4[B-]3(F)F)C(C)=C2)cc1` showed an emission maximum (in CO) of 574 nm.

For `Nc1ccc(/C=C2\OC(=O)c3ccccc32)cc1`, the emission maximum is, setting by setting: (in CC#N) 547.95 nm; (in CC(C)=O) 390.02 nm; (in CC(C)CO) 547.65 nm; (in CC(C)O) 548.25 nm; (in CCCO) 549.75 nm; (in CCO) 552.49 nm. The emission maximum (in CCOC(C)=O) is reported as 503.52 nm, the emission maximum (in CCOCC) worked out at 485.91 nm and the emission maximum (in CO) was found to be 552.49 nm.

With `CCn1c2ccccc2c2cc(/C=C/c3cccc[n+]3CCCS(=O)(=O)[O-])ccc21`, the emission maximum by setting is: (in C1CCOC1) 559 nm; (in CC#N) 565 nm; (in CC(C)=O) 565 nm; (in Cc1ccccc1) 590 nm.

As for `Cc1ccc([C@@H]2C[C@](O)(c3ccccn3)C[C@](O)(c3ccccn3)[C@H]2C(=O)c2ccc(N(c3ccccc3)c3ccccc3)cc2)cc1`, the emission maximum is given as 495 nm (in C1CCOC1); 525 nm (in CC#N); 511 nm (in CCO); 496 nm (in CCOC(C)=O); 523 nm (in CN(C)C=O); 516 nm (in ClCCl). Where the note is “in c1ccccc1”, this compound yielded an emission maximum of 466 nm.

Regarding `[O-]c1c(-c2nc3ccccc3s2)cc2ccc3cccc4ccc1c2c34`, the emission maximum is reported as 553.72 nm (in CC#N) and 555 nm (in CS(C)=O).

`CCCCC1(CCCC)c2cc(C#Cc3ccc(/C=C(\C)c4ccccc4)cc3)ccc2-c2ccc(C#Cc3ccc(/C=C(\C)c4ccccc4)cc3)cc21`: where the note is “in C1CCOC1”, the emission maximum came out at 403 nm.

`CCCCC(CC)Cn1c2cc(C#N)ccc2c2cc(-c3ccc(N(c4ccccc4)c4ccccc4)cc3)c(C#N)cc21` (configuration not stated): the emission maximum was found to be 444 nm (in C1CCCCC1); 507 nm (in C1CCOC1); 548 nm (in CC#N); 464 nm (in CCCCOCCCC); 461.69 nm (in CCN(CC)CC); 463 nm (in CCOC(C)=O). Also, the emission maximum (in CCOCC) was determined as 501 nm; the emission maximum (in CN(C)C=O) was 543 nm; the emission maximum (in Cc1ccccc1) is listed as 474 nm; the emission maximum (in ClC=C(Cl)Cl) came out at 477 nm; the emission maximum (in ClCCl) was 517 nm.

Regarding `c1ccc(-c2cc(-c3ccc(N4c5ccccc5C(c5ccccc5)(c5ccccc5)c5ccccc54)cc3)nc(-c3ccccc3)n2)cc1`, the emission maximum reads like this: (in Cc1ccccc1) 450 nm; (in O=P(c1ccccc1)(c1ccccc1)c1ccccc1Oc1ccccc1P(=O)(c1ccccc1)c1ccccc1) 464 nm.

As to `CN(C)c1ccc(/C=C/c2ccc3ccccc3[n+]2C)cc1`, the emission maximum reads like this: (in CC#N) 618 nm; (in ClCCl) 645 nm; (in O) 622 nm.

Consider `CCCCN(CCCC)c1ccc(C#Cc2cc(C#Cc3ccc(C#N)cc3)c(C#Cc3ccc(C#N)cc3)cc2C#Cc2ccc(N(CCCC)CCCC)cc2)cc1`, for which the emission maximum (in ClCCl) came to 563 nm and the emission maximum (in c1ccccc1) stood at 508 nm.

In turn, `COc1ccc([C@@H]2C[C@](O)(c3ccccn3)C[C@](O)(c3ccccn3)[C@H]2C(=O)c2ccc(N(c3ccccc3)c3ccccc3)cc2)cc1` returned an emission maximum (in C1CCOC1) of 495 nm; an emission maximum (in CC#N) of 522 nm; an emission maximum (in CCO) of 504 nm; an emission maximum (in CCOC(C)=O) of 495 nm; an emission maximum (in CN(C)C=O) of 521 nm; an emission maximum (in ClCCl) of 513 nm. Also, the emission maximum (in c1ccccc1) is on record as 468 nm.

With `Oc1cccc2ccccc12`, the emission maximum (in C1CCCCC1) stood at 344.23 nm.

For the compound `c1ccc(N(c2ccccc2)c2ccc(-n3ccc4cc(-c5ccc(C6(c7ccccc7)c7ccccc7-c7ccccc76)cc5)ccc43)cc2)cc1`, the emission maximum (in ClCCl) is reported as 379 nm.

`COC(=O)C1=C(C(=O)OC)C2(c3ccccc3-c3ccccc32)[C@@H](c2ccccc2)C=C2c3cc(OC)c(OC)cc3CCN21`: the emission maximum (in ClCCl) was found to be 431 nm.

`CCC(C)(C)c1ccc2c(c1)C(CCOC)(CCOC)c1cc(-c3ccc(-c4ccc5c(c4)C(CCOC)(CCOC)c4cc(C(C)(C)CC)ccc4-5)cc3)ccc1-2` gave an emission maximum (in C1CCCCC1) of 380 nm.

For the setting “in ClCCl”, `[O-][n+]1c(/C=C/c2cccs2)nc(N2CCOCC2)c2c1CCCC2` displayed an emission maximum of 534 nm.

Compound `COc1ccccc1C1=C2C=CC(=[N+](C)C)C=C2[Si](C)(C)c2cc(N(C)C)ccc21` returned an emission maximum (in O) of 663 nm.

In the case of `COc1ccc(-c2ccc3c(c2)c2cc(-c4ccc(OC)cc4)ccc2n3-c2ccc(C(=O)c3ccc4sc5ccccc5c4c3)nc2)cc1`, the emission maximum is given as 487.2 nm (in Cc1ccccc1) and 493 nm (in c1cc(-n2c3ccccc3c3ccccc32)cc(-n2c3ccccc3c3ccccc32)c1).

With `CCCCn1c(-c2ccc(-c3nnc(-c4ccc(-c5nc(-c6ccccc6)c(-c6ccccc6)n5CCCC)cc4)o3)cc2)nc(-c2ccccc2)c1-c1ccccc1`, the emission maximum (in ClCCl) was 445 nm.

`FC(F)(F)c1ccc(-c2nc(-c3ccc(C(F)(F)F)cc3)n3ccccc23)cc1` gave an emission maximum (in ClC(Cl)Cl) of 480 nm.

Compound `F[B-]1(F)OC(c2ccc(C(F)(F)F)cc2)=Cc2ccc3ccccc3[n+]21` displayed an emission maximum (in ClC(Cl)Cl) of 434 nm.

For the compound `CC(=O)c1ccc(-c2cc(C)[o+]c(C)c2)cc1`, the emission maximum (in ClCCl) turned out to be 405 nm.

The compound `CCN(CC)c1ccc(-n2cccc2)cc1` registered an emission maximum (in CC#N) of 337 nm and an emission maximum (in CCCCCC) of 326 nm.

The compound `Cc1cc(=O)oc2cc(/[NH+]=C/C=C3/C=C(C(=O)O)NC(C(=O)O)C3)ccc12` (configuration not stated) had an emission maximum (in O) of 570 nm.

`N#Cc1nc(-c2ccc(N3c4ccccc4Oc4ccccc43)cc2)c(-c2ccc(N3c4ccccc4Oc4ccccc43)cc2)nc1C#N` displayed an emission maximum (in c1cc(-c2cccc(-n3c4ccccc4c4ccccc43)c2)cc(-n2c3ccccc3c3ccccc32)c1) of 610 nm.

In the case of `O=c1c2ccc(N3CCCCC3)cc2oc2cc(N3CCCCC3)ccc12`, the emission maximum runs as follows: (in CO) 448.15 nm; (in ClCCl) 407.47 nm.

In the case of `FC(F)(F)c1ccc(C2=CC3=c4cc(-c5ccc(C(F)(F)F)cc5)c5nc(C(F)(F)C(F)(F)C(F)(F)F)nc6c(-c7ccc(C(F)(F)F)cc7)cc(c4c65)C4=CC(c5ccc(C(F)(F)F)cc5)=C5N=C(C(F)(F)C(F)(F)C(F)(F)F)N=C2C5C43)cc1` (configuration not stated), the emission maximum (in C1CCOC1) was found to be 512 nm.

For the compound `Nc1ccc(N2C(=O)c3ccc4c5ccc6c7c(ccc(c8ccc(c3c48)C2=O)c75)C(=O)N(c2ccc(O)cc2)C6=O)cc1`, for the setting “in CN(C)C=O”, the emission maximum is 537 nm.

Take `CN1c2cc3nc4cc(Br)c(Br)cc4nc3cc2N(C)C1(C)C`: the emission maximum (in CCO) stood at 500 nm.

Turning to `NC(=O)C1=CN([C@H]2C[C@H](O)[C@@H](COP(=O)([O-])OP(=O)([O-])OC[C@H]3O[C@@H](n4cnc5c(N)ncnc54)C[C@@H]3O)O2)C=CC1`, for the setting “in O”, the emission maximum was 450 nm.

Compound `Cc1c(C(=O)c2ccccc2)c2ccc3cccc4c5cccc6ccc1c(c65)c2c34` yielded an emission maximum (in ClCCl) of 478 nm.

`O=c1c2ccccc2c2c(C#C[Si](c3ccccc3)(c3ccccc3)c3ccccc3)c3c(=O)c4ccccc4c3c(C#C[Si](c3ccccc3)(c3ccccc3)c3ccccc3)c12` returned an emission maximum (in ClC(Cl)Cl) of 570 nm.

The compound `COc1cc2c(cc1-c1ccc(C#N)cc1)Cc1c3c(c4c(c1-2)-c1cc(OC)c(-c2ccc(C#N)cc2)cc1C4)C(=O)N(CCC(C)C)C3=O` registered an emission maximum (in C1CCOC1) of 460 nm.

`CC(C)(C)Nc1oc(C=Cc2ccccc2)c(C(=O)OC(C)(C)C)c1C(=O)OC(C)(C)C`: the emission maximum (in CC#N) is recorded as 460 nm.

As for `c1ccc2c(c1)-c1ccccc1C21c2ccccc2-c2cnccc21`, the emission maximum (in CC1CCCO1) came to 318 nm.

Regarding `O=C(O)C1=C/C(=C/C=[NH+]/c2ccc3c(C(F)(F)F)cc(=O)oc3c2)CC(C(=O)O)N1` (configuration not stated), under “in O”, the emission maximum amounted to 570 nm.

`CC(C)(C(=O)c1ccc(N2c3ccccc3Oc3ccccc32)cc1)C(=O)c1ccc(N2c3ccccc3Oc3ccccc32)cc1`: the emission maximum reads like this: (in Cc1ccccc1) 562 nm; (in c1ccc2c(c1)c1ccccc1n2-c1ccc(-c2ccc(-n3c4ccccc4c4ccccc43)cc2)cc1) 520.81 nm.
